Test results: patent US20230000868A1, “USE OF 2-PHENYL-6-(1H-IMIDAZOL-1-YL) QUINAZOLINE FOR THE PREVENTION OF ABUSE AND OF SIDE EFFECTS OF AT LEAST ONE OPIOID” (ROTTAPHARM BIOTECH S.R.L., priority 2019, published 2023)
Entries after “also recorded” stand apart in the source; their conditions may differ. Like-named read-outs stand apart in the source and are kept apart here.

What was measured:
[1] = Conditioned place preference (CPP)
Excerpt: This test exploits the tendency of rats to associate the environment where they are located with the effect of drugs administered during a conditioning period. The experiment was done in a wooden apparatus consisting of two lateral chambers (30×25 cm, length×width) with different visual and tactile properties and a central “neutral” chamber, smaller than the others (12×25 cm, length×width) with total white floor and walls. The lateral chambers had different decoration of walls (points or stripes) and different type of floor (smooth or rough). These differences can be recognized by rats, and thus associated with the effect of drug or vehicle treatment. All walls were 38.5 cm high. Four days before the preconditioning phase, the light/dark cycle was inverted; all phases of experiments were performed during the dark phase. On the preconditioning day (day 1), Wistar rats (Charles River) were placed in the neutral chamber and for 15 min they were free to explore all the environments of the apparatus (van der Kam E. L. et al. Pain, 2008, 136:373-379). The time spent in each chamber was recorded with a video tracking software (Ethovision XT 13, Noldus information technology). Rats that spent over 60% of time in one of two lateral chambers were not admitted to the conditioning phase: for admitted animals, the “preferred” chamber was therefore the one where a rat spent between 50% and 60% of time during preconditioning (while the “unpreferred” chamber was the opposite one). After preconditioning, rats were randomly assigned to the experimental groups (n=16). A total of 256 rats were used in this model. During the 2 days of the conditioning phase rats were treated with the test drug(s) (day 2) or vehicle (day 3). On the first conditioning day rats were treated with the test drug(s) and were confined in the preconditioning unpreferred lateral chamber (now defined paired chamber), with no access to the other chambers of the apparatus for 40 min. On the second day of conditioning rats were treated with vehicle and were located in the opposite chamber (unpaired chamber). The control group received vehicle in both chambers. CR4056 or its vehicle were administered 40 min before conditioning, whereas morphine or its vehicle were administered immediately before conditioning. There was no treatment on the test day (day 4), when rats were placed in the neutral chamber with the possibility to explore all chambers of the apparatus. The time spent in each chamber was recorded.
CR4056 (1 mg/kg) and morphine (1 mg/kg) alone or in co-administration were administered every other day. After 8 days of conditioning the test day was held as described above.

[2] = Open field test (distance travelled, sedation)
Procedure: The so-called open field test was used as a first model and the experiments were performed according to the procedure described by Haleem and Nawaz (Pain, 2017, 18:19-28). Drugs were administered 60 min (CR4056 or its vehicle, p.o.) and 30 min (morphine or its vehicle, s.c.) before the open field test. The video tracking was performed using the software Ethovision XT 13 (Noldus Information Technology), to assess the “distance travelled” as the primary parameter of sedation in this model. The test was performed every day after 4 days of repeated treatment.

[3] = Inflammatory pain induced by complete Freund adjuvant (CFA); format: in vivo, rat; settings: CR4056 1 mg/kg alone; FIG. 1, described as known effects
Excerpt: Previous art in the scientific literature describes that imidazoline I2 receptor agonists potentiate morphine-induced analgesia.

[4] = Opioid-induced constipation (faecal number 16 h after drug treatment)
Procedure: The experiments were conducted according to the procedure described by Harada et al. (J. Pharmacol. Exp. Ther. 2017, 362: 78-84). Wistar rats were used in this model. Fecal excretion was evaluated at the end of the dark phase of the light/dark cycle, when most activities and feeding of albino rats take place. Drugs were administered 2 h before the dark phase of the light/dark cycle, and the feces were collected and counted 16 h after drug treatment. In this experimental paradigm, CR4056 1 or 6 mg/kg was administered orally 15 min before morphine or codeine. A full analgesic dose of morphine (10 mg/kg subcutaneous) or codeine (12 mg/kg oral) were administered 15 minutes after CR4056 or vehicle.

Sedation rating scale = format: in vivo, rat
Excerpt: In addition, sedation was scored before each rotarod testing by the sedation rating scale. […] At each time point, a score from 0 (maximum sedation) to 5 (absent sedation) was assigned to each of the 8 parameters. The sum of the scores produced the total score.

[5] = morphine 1 mg/kg alone vs control rats
[6] = single administration, Morphine 1 mg/Kg
[7] = single administration, Morphine 2.5 mg/Kg
[8] = single administration, Morphine 5 mg/Kg

Compound: c1ccc(-c2ncc3cc(-n4ccnc4)ccc3n2)cc1 [CR4056, 2-phenyl-6-(1H-imidazol-1-yl) quinazoline]
- place preference ([1]; rat, in vivo, 6 mg/kg): did not induce place preference
- locomotor activity (sedation) ([2]; in vivo, po, 1 mg/kg): not sedative per se
- analgesic effect [3]: non-analgesic

Compound: COc1ccc2c3c1O[C@H]1[C@@H](O)C=C[C@H]4[C@@H](C2)N(C)CC[C@@]341 [Codeine, codeine]
- defecation (faecal number) ([4]; codeine 12 mg/kg oral, 16 h after treatment, vs vehicle or CR4056): significant decrease in defecation

Compound: CN1CC[C@]23c4c5ccc(O)c4O[C@H]2[C@@H](O)C=C[C@H]3[C@H]1C5 [Morphine, morphine]
- rotarod performance [5]: no significant changes in performance
- rotarod performance (morphine 10 mg/kg vs controls): clearly sedative
- faecal number ([4]; morphine 10 mg/kg subcutaneous, 16 h, P<0.05 vs vehicle): significant decrease in faecal number; also recorded: significantly reduced faecal count
- preference for the paired chamber ([1]; acute administration, morphine 1 mg/kg): did not induce preference
- preference for the paired chamber (time paired vs unpaired) ([1]; acute administration, morphine 2.5 mg/kg): induced a statistically significant difference
- preference for the paired chamber (time paired vs unpaired) ([1]; acute administration, morphine 5 mg/kg): induced a statistically significant difference
- %(P − U) ([1]; repeated administrations, 8 days of conditioning, Morphine 1 mg/kg): +14%
- Δ(P − U) ± ES ([1]; repeated administrations, 8 days of conditioning, Morphine 1 mg/kg, (*) paired t-test < 0.05): 95 ± 17 (*)
- Seconds in Unpaired chamber (U) ([1]; repeated administrations, every other day, 8 days of conditioning, Morphine 1 mg/kg): 295 s
- preference for the paired chamber ([1]; repeated conditionings, morphine 1 mg/kg alone): induced preference
- %(P − U) [1, 6]: 1.2%
- Seconds in Unpaired chamber (U) [1, 6]: 341 s
- Δ(P − U) ± ES [1, 6]: 7.6 ± 9.4
- %(P − U) [1, 7]: 17.1%
- Seconds in Unpaired chamber (U) [1, 7]: 291 s
- %(P − U) [1, 8]: 20.2%
- Seconds in Unpaired chamber (U) [1, 8]: 266 s
- sedation scores (Sedation rating scale; [5]): no significant changes in performance
- sedation scores (Sedation rating scale; morphine 10 mg/kg vs controls): clearly sedative
- locomotor activity (sensitization) ([2]; morphine 1-2.5 mg/kg, increased locomotor activity over 4 days of repeated treatment): modest sensitization
- locomotor activity (sedation) ([2]; morphine s.c. at doses higher than 5 mg/kg, 4 days of repeated treatment): clear sedative effect
- locomotor activity (sedation) ([2]; morphine s.c., lower doses (not higher than 5 mg/kg)): not sedative
